Structures can show the parent of a compound that is named as a salt.

The results in this text go back to patent US6906073B2, “Piperazine CCR-3 receptor antagonists” (Roche Palo Alto LLC, priority 2001, dated 2005).

One data set addresses T1, CCR-3 receptor (Homo sapiens, UniProt P51677).
T1 construct: expressed in transfected cells; host or cells: L1.2 (murine pre-B lymphoma line)
T1 sequence (P51677 1-355): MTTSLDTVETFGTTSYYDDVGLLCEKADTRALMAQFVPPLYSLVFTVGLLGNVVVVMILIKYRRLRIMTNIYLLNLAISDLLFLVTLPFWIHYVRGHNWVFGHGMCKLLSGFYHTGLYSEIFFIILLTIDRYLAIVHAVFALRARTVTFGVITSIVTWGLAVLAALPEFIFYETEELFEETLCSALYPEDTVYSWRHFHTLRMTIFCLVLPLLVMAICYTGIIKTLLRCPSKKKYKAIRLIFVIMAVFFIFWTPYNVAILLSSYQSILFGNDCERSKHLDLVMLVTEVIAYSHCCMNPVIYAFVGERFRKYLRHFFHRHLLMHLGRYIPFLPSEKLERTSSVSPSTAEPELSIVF
Description: CCR-3 Receptor Binding Assay - In Vitro (inhibition of 125I eotaxin binding to CCR-3 L1.2 transfectant cells). The settings on record: inhibition of binding of 125I eotaxin to CCR-3 L1.2 transfectant cells, 1 hour at room temperature. The method, then: CCR-3 Receptor Binding Assay—In Vitro
The CCR-3 antagonistic activity of the compounds of the invention was determined by their ability to inhibit the binding of ^125I eotaxin to CCR-3 L1.2 transfectant cells (see Ponath, P. D. et al., J. Exp. Med., Vol. 183, 2437-2448, (1996)).
The assay was performed in Costar 96-well polypropylene round bottom plates. Test compounds were dissolved in DMSO and then diluted with binding buffer (50 mM HEPES, 1 mM CaCl2, 5 mM MgCl2, 0.5% bovine serum albumin (BSA), 0.02% sodium azide, pH 7.24) such that the final DMSO concentration was 2%. 25 μl of the test solution or only buffer with DMSO (control samples) was added to each well, followed by the addition of 25 μl of ^125I-eotaxin ([…]) (NEX314, New England Nuclear, Boston, Mass.) and 1.5×10^5 of the CCR-3 L1.2 transfected cells in 25 μl binding buffer. The final reaction volume was 75 μl.
After incubating the reaction mixture for 1 hour at room temperature, the reaction was terminated by filtering the reaction mixture through polyethylenimine treated Packard Unifilter GF/C filter plate (Packard, Chicago, Ill.). The filters were washed four times with ice cold wash buffer containing 10 mm HEPES and 0.5M sodium chloride (pH 7.2) and dried at 65° C. for approximately 10 minutes. 25 μl/well of Microscint-20® scintillation fluid (Packard) was added and the radioactivity retained on the filters was determined by using the Packard TopCount®

What is called melting point is the temperature of the solid-liquid transition. `COc1cc(NC(=O)N[C@@H]2COC[C@H]2N2CCN(Cc3ccc(Cl)cc3)CC2)cc(OC)c1OC` (racemic) (as salt: hydrochloride) [compound 7, (±)-trans-1-{4-[4-(4-chlorobenzyl)-piperazin-1-yl]-tetrahydrofuran-3-yl}-3-(3,4,5-trimethoxyphenyl)urea dihydrochloride] came in with a melting point of 190.8 to 204.3 °C.

As usually defined, the IC50 is the concentration needed to halve the response being measured. At CCR-3 receptor, `O=C(Nc1ccccc1N1CCN(Cc2ccc(Cl)c(Cl)c2)CC1)c1ccc(F)c(F)c1` [compound 2, N-{2-[4-(3,4-dichlorobenzyl)-piperazin-1-yl]-phenyl}-3,4-difluoro-benzamide] registered an IC50 of 36 µM.

With `O=C(Cc1cccs1)Nc1ccccc1N1CCN(Cc2ccc(Cl)c(Cl)c2)CC1` [compound 1, N-{2-[4-(3,4-dichloro-benzyl)-piperazin-1-yl]-phenyl}-2-thiophen-2-yl-acetamide], the IC50 at CCR-3 receptor amounted to 200 µM.

Turning to `Cc1ccc(C(=O)NC2CCCCC2N2CCN(Cc3ccc(Cl)c(Cl)c3)CC2)cc1` (centres unmarked) [compound 3, N-{2-[4-(3,4-Dichloro-benzyl)-piperazin-1-yl]-cyclohexyl}-4-methyl-benzamide], the IC50 on CCR-3 receptor was determined as 12.8 µM.

Turning to `COc1cc(NC(=O)N[C@@H]2COC[C@H]2N2CCN(Cc3ccc(Cl)cc3)CC2)cc(OC)c1OC` (racemic) [compound 7, (±)-trans-1-{4-[4-(4-chlorobenzyl)-piperazin-1-yl]-tetrahydrofuran-3-yl}-3-(3,4,5-trimethoxyphenyl)urea dihydrochloride], the IC50 at CCR-3 receptor was found to be 0.11 µM.
